Legend:
[1] = system: JAK2 in irf-bla TF-1 cells; assay: GeneBLAzer reporter assay in irf-bla TF-1 cells; assay type: cell-based
Method: The effect of Compound A in a cellular system was measured using irf-bla TF-1 cells (JAK2) and Ba/F3 (JAK3) cells. These cells were not tested for the presence of JAK1 and TYK2. IC50 values are reported as the average±standard deviation of at least 4 independent determinations.

[2] = system: collagen-induced arthritis (CIA); assay: Collagen-induced arthritis (CIA) model, paw size and clinical score; assay type: in vivo, female DBA/1 mice
Method: Female DBA/1 mice were injected with purified collagen type II in CFA i.d. (intradermal), then boosted with collagen type II in IFA, s.c., (subcutaneous) on day 21 followed by a day 28 LPS injection i.p. to induce arthritis (CIA). Mice that scored a ‘1’ or better for each paw were considered arthritic and entered into the study. Treatments started after 7-10 days of arthritis induction. Compound A was provided orally, b.i.d., for all doses tested; Dex was administered i.p. at 1.5 mg/kg, three times a week; and vehicle (PEG400+1% DMSO) was provided orally, b.i.d.
Compound A was then tested in a more physiologic and progressive disease model of RA (i.e., collagen-induced arthritis (CIA) model). […] Early model optimization studies consistently generated robust collagen-induced-arthritis phenotypes that were absent from control treated, non-diseased, animals. CIA arthritic animals were separated into groups and treated with Compound A at 30, 55 and 100 mg/kg doses b.i.d, p.o.; vehicle or the standard-of-care reference drug, Dex at 1.5 mg/kg, which were administered as described above. […] The faster onset of swelling reduction noted for the 100 mg/kg treatment group may be explained by differences in the mechanism of action of Compound A.
Acclimated mice were randomized and pre-bled and measured for baseline inflammation before any studies were initiated. On day 0, DBA/1 female mice were given a primary immunization with equal volumes of bovine type II collagen (CII), 2 mg/ml stock in 0.05 M acetic acid, (Chrondrex, Redmond, Wash.) suspended in CFA, 5 mg/ml (Chondrex, Redmond, Wash.) emulsion yielding an injection of 100 μg of CII at 100 μl into the base of the tail intradermally (i.d.). At day 21 post primary immunization, mice were re-challenged with CII emulsified in Incomplete Freund's Adjuvant (IFA) (Thermo Scientific, Rockford, Ill.) s.c. on the flank of the mouse. On day 28 each mouse received an i.p. injection of E. coli 0111:B4 LPS (0.5 mg/ml stock) (Chondrex, Redmond, Wash.) at 10 μg in 100 μl of saline (25-50 μg of LPS was reduced to 10 μg per mouse to reduce mortality associated with endotoxic shock). Around day 35 the mice begin to show signs of paw inflammation and disease. Before starting treatment mice were randomized, grouped, scored, ear tagged and pre-bled to determine baseline disease. […] Arthritis clinical scores were the same as that used to score the CAIA model (see CAIA methods). Vehicle consisted of PEG400 plus 1% DMSO given orally, twice daily (b.i.d). […] All samples were kept at −80° C. until ready to assay. At about day 60 mice were harvested for spleen, plasma and arthritic paws for STAT and cytokine quantitation and histological analysis.

[3] = system: JAK2 in HEL92 cells (phosphorylation of STAT5); assay: Inhibition of STAT5 phosphorylation in HEL92 cells (western blot); assay type: cell-based; details: 1 hour, serum-free media
[4] = system: JAK2 (STAT5/pSTAT5 in HEL92 tumor extracts); assay: In vivo pharmacodynamic assay, HEL92 tumor extracts; set-up: species or system mice; details: 55 mg/kg p.o., 2 hours
From the text: Levels of STAT5 and pSTAT5 were quantitated via western blot. Each lane represents an individual sample.

[5] = system: CB11-specific, IFNγ secreting T cells; assay: CIA model, ex vivo IFNγ T-cell Elispot of splenocytes; assay type: in vivo, female DBA/1 mice; details: four weeks
From the text: FIG. 4D: Depicts IFNγ Elispot® results from stimulated splenocytes from treated mice challenged with collagen type II fragment (CB11), OVA or media alone. The Elispot images shown in the figure are representative of each treatment group and the bar graph represents data using four mice from each treatment group. Spots were counted using a C.T.L. Immunospot Elispot scanner and spot counting software.
For CIA experiments, Millipore nitrocellulose IP filter plates (Millipore, Billerica, Mass.) were coated with either anti-mouse IFNγ (AN18, MabTech, Mariemont, Ohio) or anti-mouse IL-4 (11B11, eBioscience, San Diego, Calif.) at 7 μg/ml or 2 μg/ml, respectively, in sterile PBS at 60 μl per well and incubated for 3 hours at RT or overnight at 4° C. Coated wells were washed with PBS plus 0.1% Tween-20 and patted semi-dry before blocking using complete media for at least 1 hour before use. Purified mouse collagen type II (Chrondrex, Redmond, Wash.), type I (Chrondrex, Redmond, Wash.) or third party control chicken ovalbumin (OVA) (Sigma, St. Louis, Mo.) were used to challenge 1 million processed splenocytes per well at 10 μg/ml of total antigen concentration. Media alone were used as background controls, OVA as third party controls and PMA plus Ionomycin as positive controls for IFNγ and IL-4 release by Th1 and Th2 cells, respectively.

[6] = CAIA model, total body mass; assay type: in vivo, female DBA/1 mice; details: all doses
Method: FIG. 3E: Depicts the effect of treatment on total body mass in a CAIA model
Acclimated mice were randomized, pre-bled and measured for baseline inflammation before any studies were initiated. On day 0, DBA/1 female mice were injected i.v. with […] of a saline solution containing 1.5 mg of a 10 mg/ml cocktail of arthritogenic monoclonal antibodies directed against different epitopes of collagen type II (Chondrex, Redmond, Wash.) suspended in saline. On day 3, mice were injected with 100 μl of 50 μg of E. coli 0111:B4 LPS (0.5 mg/ml stock) (Chondrex, Redmond, Wash.) i.p. and provided with gel food during recovery. Two days post-LPS treatment monitoring of arthritic paws began; peak arthritis usually occurred 2-3 days following LPS treatment. […] Arthritis clinical score tables can be found described elsewhere. […] All samples were kept at −80° C. until ready to assay. At about 4 weeks, mice were harvested for spleen, serum and arthritic paws for STAT and cytokine quantitation and histological analysis. […]

[7] = CIA, 30, 55 and 100 mg/kg b.i.d. p.o.

**Q.** Which “inhibition of JAK2, reporter assay” value [1] does the source give for `CN1CCN(c2cccc(Nc3nc4c(-c5ccc(S(C)(=O)=O)cc5)cccn4n3)c2)CC1` [Compound A, [8-(4-Methanesulfonyl-phenyl)-[1,2,4]triazolo[1,5-a]pyridin-2-yl]-[3-(4-methyl-piperazin-1-yl)-phenyl]-amine] here?
**A.** The value was “inhibits JAK2 in irf-bla TF-1 cells”.

**Q.** And the “suppression of paw swelling versus Dex” value ([2]; CIA, 100 mg/kg)?
**A.** The value was “near identical suppression of paw swelling”.

**Q.** And the “onset of swelling reduction versus Dex” value ([2]; CIA, 100 mg/kg, day 43)?
**A.** Its value is “more rapid drop in swelling as compared to the Dex treatment group”.

**Q.** What about the clinical score [2, 7] of the same molecule?
**A.** Its clinical score is “reduction in clinical score in a dose-dependent manner”.

**Q.** What about the mean paw size [2, 7] of the same molecule?
**A.** Its mean paw size is “clear reduction in the mean paw size”.

**Q.** And the “inhibition of JAK2, phosphorylation of STAT5” value [3]?
**A.** The value was “shown to inhibit JAK2 in HEL92 cells”.

**Q.** And the “inhibition of JAK2 in vivo (pSTAT5/STAT5)” value [4]?
**A.** The value was “inhibit JAK2 in vivo”.

**Q.** And the “frequency of CB11-specific, IFNγ secreting T cells” value ([5]; 55 mg/kg b.i.d. p.o.)?
**A.** The value was “significant reduction in the frequency of CB11-specific, IFNγ secreting T cells”.

**Q.** What about the “frequency of CB11-specific, IFNγ secreting T cells” value ([5]; 100 mg/kg b.i.d. p.o.) of the same molecule?
**A.** The value was “significant reduction in the frequency of CB11-specific, IFNγ secreting T cells”.

**Q.** And the total body mass [6]?
**A.** Its total body mass is “not significantly different from that of vehicle-treated animals”.

Source: US9034876B2, “Treatment of chronic inflammation with a 1,2,4-triazolo [1,5a] pyridine derivative” (Cephalon, Inc., priority 2010, dated 2015)
